Data reported in article PMC3713009 (PLoS ONE, 2013).
pIC50: −log10 of the molar value. Where two headings read alike, the source gives them in different places.

How the values were obtained:
HDAC3/NCOR1 complex = HDAC3/NCOR1 complex (Homo sapiens, UniProt O15379); assay: HDAC3 enzyme assay (fluorescent activity kit, HDAC3/NCOR1 complex); assay type: biochemical; conditions: for inhibition at 10 µM: library screen, o-aminoanilides T1–T336 without purification, values read from Figure 7; for IC50 HDAC3 / pIC50: class I, means of at least three experiments;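 for all read-outs here: in vitro enzyme activity of HDAC3 complexed with NCOR1, fluorescence read at 360 nm excitation and 460 nm emission, inhibition relative to uninhibited control wells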
Chain of HDAC3/NCOR1 complex (O15379 whole entry): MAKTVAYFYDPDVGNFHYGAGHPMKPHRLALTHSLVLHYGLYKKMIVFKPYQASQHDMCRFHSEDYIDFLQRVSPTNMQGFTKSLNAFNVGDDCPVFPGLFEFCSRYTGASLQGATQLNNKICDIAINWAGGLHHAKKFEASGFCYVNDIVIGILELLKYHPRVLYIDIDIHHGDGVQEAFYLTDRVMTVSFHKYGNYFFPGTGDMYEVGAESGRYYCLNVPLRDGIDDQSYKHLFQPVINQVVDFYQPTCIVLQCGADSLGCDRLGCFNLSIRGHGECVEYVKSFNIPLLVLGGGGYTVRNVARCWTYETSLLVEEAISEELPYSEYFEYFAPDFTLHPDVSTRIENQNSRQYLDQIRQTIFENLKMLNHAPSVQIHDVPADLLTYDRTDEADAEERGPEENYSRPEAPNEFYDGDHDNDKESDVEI
Chain of HDAC3/NCOR1 complex (O75376 395-489 partner limits assumed): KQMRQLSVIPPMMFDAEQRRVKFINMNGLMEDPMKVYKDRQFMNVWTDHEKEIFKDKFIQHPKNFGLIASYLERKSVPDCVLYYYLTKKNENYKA
Description: Because HDAC3 forms a complex with NCOR1 in cells [45], we used HDAC3/NCOR1 complex in in vitro HDAC3 assay. […] Therefore, as a primary in vitro screening for HDAC3 selectivity, we used total HDACs from HeLa nuclear extracts, in which the combined deacetylase activity of HDAC1 and HDAC2 is much higher than the activity of HDAC3 [46]. Initially, o-aminoanilides T1–T336 (10 µM) and hydroxamates T337–T504 (1 µM) were tested for inhibitory activity against HDAC3. […] The fluorescence of the wells was measured on a fluorometric reader with excitation set at 360 nm and emission detection set at 460 nm, and the values of % inhibition were calculated from the fluorescence readings of inhibited wells relative to those of control wells. […] IC50 values were determined by regression analysis of the concentration/inhibition data.

[1] = tested on: prostate cancer PC3 cells; assay: Cell growth inhibition assay (MTT), PC3; assay type: cell-based; conditions: Homo sapiens, read-out: GI50 PC3 (prostate cancer)
Description: (§2) The solubilized dye was quantified by colorimetric reading at 570 nm. The absorbance values of control wells (C) and test wells (T) were measured. The absorbance of the test wells (T 0) was also measured at time 0 (addition of compounds). Using these measurements, cell growth inhibition (percentage of growth) by a test inhibitor at each concentration used was calculated as: % growth = 100×[(T – T 0)/(C – T 0)], when T>T 0 and % growth = 100× [(T – T 0)/T], when T<T 0.

[2] = tested on: acetylated α-tubulin in HCT116 cells; assay: Western blot of acetylated α-tubulin in HCT116 cells; assay type: cell-based, human; conditions: 8 h treatment
Description: (§3) Since HDAC3 is known to catalyze the deacetylation of NF-κB [13]–[14], we initially examined the effects of the inhibitors on the acetylation levels of NF-κB in HCT116 cells.
(§4) Protein concentrations of the lysates were determined using a Bradford protein assay kit (Bio-Rad Laboratories); equivalent amounts of proteins from each lysate were resolved in AnykD SDS-polyacrylamide gels and then transferred onto nitrocellulose membranes (Bio-Rad Laboratories). After having been blocked for 30 min with Tris-buffered saline (TBS) containing 3% skimmed milk, the transblotted membranes were incubated overnight at 4°C with acetyl NF-κB antibody (CST) (1∶1000 dilution), NF-κB antibody (CST) (1∶1000 dilution), acetyl α-tubulin antibody (Sigma) (1∶2000 dilution), α-tubulin antibody (Sigma) (1∶2000 dilution), acetyl p53 antibody (CST) (1∶500 dilution) or p53 antibody (CALBIOCHEM) (1∶500 dilution) in TBS containing 3% skimmed milk. […] The immunoblots were visualized by enhanced chemiluminescence.

[3] = tested on: colon cancer HCT116 cells; assay: Cell growth inhibition assay (MTT), HCT116; assay type: cell-based; conditions: Homo sapiens, read-out: GI50 HCT116 (colon cancer)
Description: as §2

[4] = tested on: acetylated NF-κB in HCT116 cells; assay: Western blot of acetylated NF-κB in HCT116 cells; assay type: cell-based, human; conditions: 8 h treatment
Description: as §3, §4

[5] = target: total HDACs from HeLa nuclear extracts; assay: Total HDACs enzyme assay (HeLa nuclear extracts); assay type: biochemical; conditions: pure resynthesized compounds, means of at least three experiments
[6] = tested on: acetylated p53 in HCT116 cells; assay: Western blot of acetylated p53 in HCT116 cells; assay type: cell-based, human; conditions: 8 h treatment
Description: as §3, §4

HDAC1 = target: T1, HDAC1 (Homo sapiens, UniProt Q13547); assay: HDAC1 enzyme assay; assay type: biochemical; conditions: class I; means of at least three experiments
T1 construct: purchased SignalChem Pharmaceuticals Inc. H83-30G
T1 sequence (Q13547 whole entry): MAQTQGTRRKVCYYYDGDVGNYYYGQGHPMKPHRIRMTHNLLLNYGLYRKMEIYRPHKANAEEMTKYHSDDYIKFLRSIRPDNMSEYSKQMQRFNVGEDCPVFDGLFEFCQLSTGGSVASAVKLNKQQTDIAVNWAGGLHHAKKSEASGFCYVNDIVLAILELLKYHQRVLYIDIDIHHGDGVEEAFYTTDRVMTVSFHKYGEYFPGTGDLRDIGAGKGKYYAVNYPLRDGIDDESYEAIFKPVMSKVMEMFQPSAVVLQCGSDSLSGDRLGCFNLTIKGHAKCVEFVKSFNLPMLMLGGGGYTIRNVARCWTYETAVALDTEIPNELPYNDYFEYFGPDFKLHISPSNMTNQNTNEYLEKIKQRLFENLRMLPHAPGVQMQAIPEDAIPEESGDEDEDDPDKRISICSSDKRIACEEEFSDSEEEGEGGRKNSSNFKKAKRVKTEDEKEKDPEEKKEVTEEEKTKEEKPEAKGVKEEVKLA
Description: (§1) The fluorescence of the wells was measured on a fluorometric reader with excitation set at 360 nm and emission detection set at 460 nm, and the values of % inhibition were calculated from the fluorescence readings of inhibited wells relative to those of control wells. […] IC50 values were determined by regression analysis of the concentration/inhibition data.

[7] = tested on: OM10.1 cells latently infected with HIV-1; assay: Viral p24 antigen assay in latently HIV-1-infected OM10.1 cells; assay type: cell-based
Description: Figure 13 Induction of viral replication from OM10.1 cells latently infected with HIV-1. […] HIV-1 p24 antigen in the cell culture supernatant was measured using ELISA. Experiments were performed in triplicate, and the means ±S.D. are indicated. **P<0.01, *P<0.05; Student’s t test results indicated differences between DMSO and inhibitors.
The p24 antigen level in the cell culture supernatant was measured by p24 antigen capture ELISA assay using a commercial kit (RETRO-TEK HIV-1 p24 Antigen ELISA kit; Zepto Metrix, Buffalo, NY, USA) according to the method reported in ref [54].

HDAC4 = target: T2, HDAC4 (Homo sapiens, UniProt P56524); assay: HDAC4 enzyme assay; assay type: biochemical; conditions: class IIa; means of at least three experiments
T2 construct: purchased BPS Bioscience Incorporated
T2 sequence (P56524 627-1084 limits assumed): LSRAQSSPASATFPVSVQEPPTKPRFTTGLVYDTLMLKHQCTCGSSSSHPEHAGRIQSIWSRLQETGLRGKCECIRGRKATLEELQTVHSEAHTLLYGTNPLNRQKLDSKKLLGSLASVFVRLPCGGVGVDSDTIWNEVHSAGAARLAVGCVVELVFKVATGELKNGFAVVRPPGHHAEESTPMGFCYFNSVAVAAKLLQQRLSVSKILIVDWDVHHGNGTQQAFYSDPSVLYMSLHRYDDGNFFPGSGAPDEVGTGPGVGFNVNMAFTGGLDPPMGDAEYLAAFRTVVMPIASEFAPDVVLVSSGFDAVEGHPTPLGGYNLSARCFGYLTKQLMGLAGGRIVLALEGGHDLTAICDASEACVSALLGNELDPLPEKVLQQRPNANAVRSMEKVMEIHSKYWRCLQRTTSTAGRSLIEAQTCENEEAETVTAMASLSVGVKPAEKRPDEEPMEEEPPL

HDAC6 = target: T3, HDAC6 (Homo sapiens, UniProt Q9UBN7); assay: HDAC6 enzyme assay; assay type: biochemical; conditions: class IIb; means of at least three experiments
T3 construct: purchased BIOMOL Research Laboratories SE-508
T3 sequence (Q9UBN7 1-1215): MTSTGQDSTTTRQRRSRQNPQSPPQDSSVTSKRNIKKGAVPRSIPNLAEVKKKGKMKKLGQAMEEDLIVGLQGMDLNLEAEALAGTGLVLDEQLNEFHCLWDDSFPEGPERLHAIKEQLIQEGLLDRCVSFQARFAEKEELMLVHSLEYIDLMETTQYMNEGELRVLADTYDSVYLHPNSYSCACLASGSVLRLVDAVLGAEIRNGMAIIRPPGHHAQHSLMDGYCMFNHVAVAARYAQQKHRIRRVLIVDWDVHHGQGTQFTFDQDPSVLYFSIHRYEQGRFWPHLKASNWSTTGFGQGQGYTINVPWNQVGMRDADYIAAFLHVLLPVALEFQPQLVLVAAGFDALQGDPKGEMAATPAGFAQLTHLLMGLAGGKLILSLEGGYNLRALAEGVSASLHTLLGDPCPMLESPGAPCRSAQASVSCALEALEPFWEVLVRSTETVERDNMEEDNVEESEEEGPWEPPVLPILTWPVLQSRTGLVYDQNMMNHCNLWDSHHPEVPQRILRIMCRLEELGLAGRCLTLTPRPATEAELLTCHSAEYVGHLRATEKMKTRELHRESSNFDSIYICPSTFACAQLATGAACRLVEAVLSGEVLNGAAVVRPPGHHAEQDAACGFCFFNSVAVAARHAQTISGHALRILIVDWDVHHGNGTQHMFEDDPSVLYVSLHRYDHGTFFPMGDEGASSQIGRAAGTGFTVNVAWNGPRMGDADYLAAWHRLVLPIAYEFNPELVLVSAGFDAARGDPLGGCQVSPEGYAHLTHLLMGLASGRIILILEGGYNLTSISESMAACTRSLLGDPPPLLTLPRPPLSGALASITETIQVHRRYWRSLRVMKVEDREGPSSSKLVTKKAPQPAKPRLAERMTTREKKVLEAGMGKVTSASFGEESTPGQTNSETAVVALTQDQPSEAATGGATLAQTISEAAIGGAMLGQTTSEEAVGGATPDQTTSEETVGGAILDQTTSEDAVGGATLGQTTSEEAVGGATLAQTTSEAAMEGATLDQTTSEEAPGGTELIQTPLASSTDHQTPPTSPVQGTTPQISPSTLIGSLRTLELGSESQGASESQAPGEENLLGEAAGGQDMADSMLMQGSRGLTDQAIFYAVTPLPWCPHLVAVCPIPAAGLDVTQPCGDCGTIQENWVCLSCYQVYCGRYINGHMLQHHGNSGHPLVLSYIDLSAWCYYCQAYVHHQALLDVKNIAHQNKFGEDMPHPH

HDAC8 = target: T4, HDAC8 (Homo sapiens, UniProt Q9BY41); assay: HDAC8 enzyme assay; assay type: biochemical; conditions: class I; means of at least three experiments
T4 construct: purchased Cyclex Company Limited CY-1158
T4 sequence (Q9BY41 1-377): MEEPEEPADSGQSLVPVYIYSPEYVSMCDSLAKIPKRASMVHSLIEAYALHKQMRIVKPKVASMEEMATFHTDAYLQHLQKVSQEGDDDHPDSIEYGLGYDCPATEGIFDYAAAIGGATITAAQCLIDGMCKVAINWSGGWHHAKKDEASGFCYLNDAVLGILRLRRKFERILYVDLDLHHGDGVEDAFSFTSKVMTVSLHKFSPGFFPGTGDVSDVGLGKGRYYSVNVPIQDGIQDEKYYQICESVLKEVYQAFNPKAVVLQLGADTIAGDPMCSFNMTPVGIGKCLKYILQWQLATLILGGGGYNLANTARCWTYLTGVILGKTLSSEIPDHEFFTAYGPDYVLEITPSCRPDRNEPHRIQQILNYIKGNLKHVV
Description: as §1

[8] = 1 µM, means of two experiments, read-out: HDAC3 inhibition (%)
[9] = 3 µM, means of two experiments, read-out: HDAC3 inhibition (%)
[10] = PC-3, 48 h exposure, MTT, means of at least three experiments
[11] = HCT-116, 48 h exposure, MTT, means of at least three experiments
[12] = 48 h, 0.1, 1 and 10 µM, effect at 1 µM and/or 10 µM

SMILES: Nc1ccccc1NC(=O)CCc1cn(Cc2cccc(-c3ccccc3)c2)nn1 [Compound T52]
- HDAC3 inhibition (%) (HDAC3/NCOR1 complex; 1 µM, means of two experiments): 55%
- HDAC3 inhibition (%) (HDAC3/NCOR1 complex; 3 µM, means of two experiments): 81%

SMILES: Nc1ccccc1NC(=O)c1cccc(-c2cn(CC(=O)c3ccccc3)nn2)c1 [Compound T199]
- HDAC3 inhibition (%) (HDAC3/NCOR1 complex; 1 µM, means of two experiments): 59%
- HDAC3 inhibition (%) (HDAC3/NCOR1 complex; 3 µM, means of two experiments): 83%

SMILES: Nc1ccccc1NC(=O)c1ccc(-c2cn(CCc3ccsc3)nn2)cc1 [Compound T247, N-(2-Aminophenyl)-4-[1-(2-thiophen-3-ylethyl)-1H-[1], [2], [3]triazol-4-yl]benzamide]
- inhibition at 1 µM (HDAC3/NCOR1 complex; [8]): 89%
- inhibition at 3 µM (HDAC3/NCOR1 complex; [9]): 95%
- inhibition at 10 µM (HDAC3/NCOR1 complex): 93%
- IC50 HDAC3 (HDAC3/NCOR1 complex): submicromolar
- GI50 [1, 10]: 1400 nM
- acetylation of α-tubulin [2]: did not enhance the acetylation of α-tubulin
- GI50 [3, 11]: 1900 nM
- NF-κB acetylation [4]: dose-dependent increase of NF-κB acetylation
- pIC50 [5]: < 4.00
- levels of acetylated p53 [6]: not elevated
- pIC50 (HDAC1): 4.72
- HIV-1 expression (p24 antigen in supernatant) [7, 12]: significantly stimulated HIV-1 expression

SMILES: Nc1ccccc1NC(=O)c1ccc(-c2cn(Cc3cccc4ccccc34)nn2)cc1 [Compound T251]
- HDAC3 inhibition (%) (HDAC3/NCOR1 complex; 1 µM, means of two experiments): 75%
- HDAC3 inhibition (%) (HDAC3/NCOR1 complex; 3 µM, means of two experiments): 92%

SMILES: Nc1ccccc1NC(=O)c1ccc(-c2cn(CCC3CCCCC3)nn2)cc1 [Compound T254]
- HDAC3 inhibition (%) (HDAC3/NCOR1 complex; 1 µM, means of two experiments): 55%
- HDAC3 inhibition (%) (HDAC3/NCOR1 complex; 3 µM, means of two experiments): 80%

SMILES: Nc1ccccc1NC(=O)c1ccc(-c2cn(CCc3cccc(F)c3)nn2)cc1 [Compound T261]
- HDAC3 inhibition (%) (HDAC3/NCOR1 complex; 1 µM, means of two experiments): 75%
- HDAC3 inhibition (%) (HDAC3/NCOR1 complex; 3 µM, means of two experiments): 89%

SMILES: Cc1ccccc1CCn1cc(-c2ccc(C(=O)Nc3ccccc3N)cc2)nn1 [Compound T263]
- HDAC3 inhibition (%) (HDAC3/NCOR1 complex; 1 µM, means of two experiments): 74%
- HDAC3 inhibition (%) (HDAC3/NCOR1 complex; 3 µM, means of two experiments): 91%

SMILES: COc1ccccc1CCn1cc(-c2ccc(C(=O)Nc3ccccc3N)cc2)nn1 [Compound T266]
- HDAC3 inhibition (%) (HDAC3/NCOR1 complex; 1 µM, means of two experiments): 73%
- HDAC3 inhibition (%) (HDAC3/NCOR1 complex; 3 µM, means of two experiments): 91%

SMILES: COc1cccc(CCn2cc(-c3ccc(C(=O)Nc4ccccc4N)cc3)nn2)c1 [Compound T267]
- HDAC3 inhibition (%) (HDAC3/NCOR1 complex; 1 µM, means of two experiments): 80%
- HDAC3 inhibition (%) (HDAC3/NCOR1 complex; 3 µM, means of two experiments): 92%

SMILES: Nc1ccccc1NC(=O)c1ccc(-c2cn(CCc3ccc(F)cc3)nn2)s1 [Compound T318]
- HDAC3 inhibition (%) (HDAC3/NCOR1 complex; 1 µM, means of two experiments): 77%
- HDAC3 inhibition (%) (HDAC3/NCOR1 complex; 3 µM, means of two experiments): 91%

SMILES: Nc1ccccc1NC(=O)c1ccc(-c2cn(CCc3cccc([N+](=O)[O-])c3)nn2)s1 [Compound T326, 5-{1-[2-(3-Nitrophenyl)ethyl]-1H-[1], [2], [3]triazol-4-yl}thiophene-2-carboxylic acid (2-aminophenyl)amide]
- pIC50 (HDAC4): < 4.00
- inhibition at 1 µM (HDAC3/NCOR1 complex; [8]): 86%
- inhibition at 3 µM (HDAC3/NCOR1 complex; [9]): 95%
- inhibition at 10 µM (HDAC3/NCOR1 complex): 98%
- pIC50 (HDAC3/NCOR1 complex): 6.59
- IC50 HDAC3 (HDAC3/NCOR1 complex): submicromolar
- GI50 [1, 10]: 1000 nM
- acetylation of α-tubulin [2]: did not enhance the acetylation of α-tubulin
- GI50 [3, 11]: 940 nM
- pIC50 (HDAC6): < 4.00
- NF-κB acetylation [4]: dose-dependent increase of NF-κB acetylation
- pIC50 [5]: < 4.00
- levels of acetylated p53 [6]: not elevated
- pIC50 (HDAC1): < 4.00
- pIC50 (HDAC8): < 4.00
- HIV-1 expression (p24 antigen in supernatant) ([7]; 48 h, 10 µM): less active at 10 µM due to cytotoxicity
- HIV-1 expression (p24 antigen in supernatant) [7, 12]: significantly stimulated HIV-1 expression

SMILES: Cc1ccc(C(=O)NCC(=O)NCCC(=O)Nc2ccccc2N)cc1 [compound 1, reference compound]
- pIC50 (HDAC4): < 4.00
- inhibition at 1 µM (HDAC3/NCOR1 complex; [8]): 9%
- inhibition at 3 µM (HDAC3/NCOR1 complex; [9]): 29%
- inhibition at 10 µM (HDAC3/NCOR1 complex): 47%
- pIC50 (HDAC3/NCOR1 complex): 4.72
- GI50 [1, 10]: > 100000 nM
- GI50 [3, 11]: 81000 nM
- pIC50 (HDAC6): < 4.00
- pIC50 [5]: < 4.00
- pIC50 (HDAC1): < 4.00
- pIC50 (HDAC8): < 4.00
- HIV-1 expression (p24 antigen in supernatant) [7, 12]: did not show any activity

SMILES: O=C(CCCCCCC(=O)Nc1ccccc1)NO [vorinostat (3), vorinostat, reference compound]
- inhibition at 1 µM (HDAC3/NCOR1 complex; read-out: HDAC3 inhibition (%)): 83%
- inhibition at 3 µM (HDAC3/NCOR1 complex; read-out: HDAC3 inhibition (%)): 93%
- inhibition at 1 µM (HDAC3/NCOR1 complex; read-out: HDAC3 inhibition (%) at 1 µM): 98%
- GI50 ([1]; PC-3, 48 h): 1600 nM
- GI50 ([3]; HCT-116, 48 h): 1300 nM
- NF-κB acetylation [4]: induced non-selective acetylation of NF-κB and p53
- levels of acetylated p53 [6]: induced non-selective acetylation of NF-κB and p53
- HIV-1 expression (p24 antigen in supernatant) [7, 12]: significantly stimulated HIV-1 expression
